The values below come from patent publication US20110212169A1, “METHOD FOR PRODUCING POWDER CONTAINING NANOPARTICULATED SPARINGLY SOLUBLE DRUG, POWDER PRODUCED THEREBY AND PHARMACEUTICAL COMPOSITION CONTAINING SAME (As Amended)” (Amorepacific Corporation, priority 2008, published 2011).

The structures appear in SMILES notation.

The nature of this data set: Particle size of drug after redispersion in distilled water (laser scattering particle size analyzer). It counts as physicochemical. As to the method:
Each powder (0.01 g) was redispersed in distilled water (5 mL) and particle size was measured. Electron microscopic images of the powders when the concentration of the carageenan solution was 0.1 wt % and 2 wt % are shown in FIGS. 2a and 2b, respectively. The redispersion was conducted by lightly shaking the mixture with a hand. The particle size was measured under aqueous condition using a laser scattering particle size analyzer (LA 910, Horiba, Japan) (Mie & Fraunhofer, relative refraction index=1). The resolving power of the ultrasonic disperser used for the particle size measurement was 40 W (39 kHz), and the speed of stirring and circulation was 340 mL/min. The particle size measurement was made after performing ultrasonic dispersion for 1 minute.

As to `COc1ccc2cc([C@H](C)C(=O)O)ccc2c1` [naproxen], the Average particle size by setting is: (1 wt % carageenan, hot air drying at 40 °C, redispersed in distilled water) 0.39 (±1.01) μm; (1 wt % carageenan, hot air drying at 60 °C, redispersed in distilled water) 0.36 (±0.29) μm; (carageenan 0.1 wt %, freeze dried powder redispersed in distilled water) 0.91 (±2.00) μm; (carageenan 0.5 wt %, freeze dried powder redispersed in distilled water) 0.31 (±0.10) μm; (carageenan 0.5 wt %, vacuum drying at room temperature, redispersed in distilled water) 0.36 (±0.71) μm; (carageenan 1 wt %, freeze dried powder redispersed in distilled water) 0.28 (±0.08) μm. The Average particle size by setting is: (carageenan 1 wt %, vacuum drying at room temperature, redispersed in distilled water) 0.26 (±0.06) μm; (carageenan 2 wt %, freeze dried powder redispersed in distilled water) 0.23 (±0.06) μm; (carageenan 2 wt %, vacuum drying at room temperature, redispersed in distilled water) 0.21 (±0.06) μm; (carageenan 3 wt %, freeze dried powder redispersed in distilled water) 0.26 (±0.07) μm; (carageenan 3 wt %, vacuum drying at room temperature, redispersed in distilled water) 0.23 (±0.06) μm; (carageenan 5 wt %, freeze dried powder redispersed in distilled water) 0.12 (±0.05) μm. Moreover, the Average particle size by setting is: (naproxen concentration 16 wt %, carageenan 0.5 wt %, freeze dried, redispersed in distilled water) 0.56 (±1.20) μm; (naproxen concentration 16 wt %, carageenan 1 wt %, freeze dried, redispersed in distilled water) 0.22 (±0.07) μm. For the same molecule, the drug particle size runs as follows: (alginic acid 1 wt %, vacuum drying at room temperature, redispersed in distilled water) 0.31 (±0.41); (alginic acid 2 wt %, vacuum drying at room temperature, redispersed in distilled water) 0.19 (±0.05); (gelatin 1 wt %, freeze drying, redispersed in distilled water) 0.45 (±0.89); (gelatin 2 wt %, freeze drying, redispersed in distilled water) 0.16 (±0.08); (gelatin 3 wt %, freeze drying, redispersed in distilled water) 0.13 (±0.06); (gelatin 3 wt %, vacuum drying at room temperature, redispersed in distilled water) 0.36 (±0.10). Besides, where the note is “gelatin 5 wt %, freeze drying, redispersed in distilled water”, the drug particle size is recorded as 0.16 (±0.05). Moreover, under “slurry mixture after wet grinding (before drying) redispersed in distilled water”, the “average particle size of the naproxen particles” value is 0.10 μm.

Consider `C=CC[C@@H]1/C=C(\C)C[C@H](C)C[C@H](OC)[C@H]2O[C@@](O)(C(=O)C(=O)N3CCCC[C@H]3C(=O)O[C@H](/C(C)=C/[C@@H]3CC[C@@H](O)[C@H](OC)C3)[C@H](C)[C@@H](O)CC1=O)[C@H](C)C[C@@H]2OC` [Tacrolimus, tacrolimus], for which the Average particle size (carageenan 5 wt %, freeze dried powder redispersed in distilled water, different drugs) is recorded as 0.16 (±0.09) μm.
